Reference: patent US11802127B2, “3,4-dihydro-2,7-naphthyridine-1,6(2H,7H)-diones as MEK inhibitors” (Pfizer Inc., priority 2021, dated 2023)

Experiment: Moisture sorption analysis of solid forms
Format: physicochemical
Conditions: 25° C.
Experimental: Water sorption and desorption studies were conducted on automated vapor sorption analyzer (TA instruments Q5000 SA). The microbalance was calibrated using a 100 mg standard weight. The relative humidity sensor was calibrated at 5.0, 11.3, 32.8, 52.8, 75.3, and 84.3% RH (25° C.) using saturated salt solutions. Approximately 10-20 mg of crystalline monohydrate 8-((2-fluoro-4-(methylthio)phenyl)amino)-2-(2-hydroxyethoxy)-7-methyl-3,4-dihydro-2,7-naphthyrdine-1,6(2H,7H)-dione, Form 3 was placed in the quartz sample holder and dried at ≤3% relative humidity (RH) at 25° C. […] A maximum equilibration time of 120 minutes was used for all steps. The weight gain at each of the % RH steps is based on the weight after the initial drying step at 0% RH. The weight change of the sample was not used to assess equilibrium and instead all steps were programed to be 120 minutes. After data collection was complete, data analysis was performed using commercially available TA universal analysis software and Microsoft Excel.
FIG. 5 depicts the sorption isotherm of crystalline monohydrate 8-((2-fluoro-4-(methylthio)phenyl)amino)-2-(2-hydroxyethoxy)-7-methyl-3,4-dihydro-2,7-naphthyridine-1,6(2H,7H)-dione, Form 3. […] Crystalline anhydrous 8-((2-fluoro-4-(methylthio)phenyl)amino)-2-(2-hydroxyethoxy)-7-methyl-3,4-dihydro-2,7-naphthyridine-1,6(2H,7H)-dione, Form 2 rehydrates to crystalline monohydrate 8-((2-fluoro-4-(methylthio)phenyl)amino)-2-(2-hydroxyethoxy)-7-methyl-3,4-dihydro-2,7-naphthyridine-1,6(2H,7H)-dione, Form 3 at 25% RH at 25° C. as confirmed by PXRD analysis. Based on this analysis, crystalline anhydrous 8-((2-fluoro-4-(methylthio)phenyl)amino)-2-(2-hydroxyethoxy)-7-methyl-3,4-dihydro-2,7-naphthyridine-1,6(2H,7H)-dione, Form 2 is stable below 10% RH at 25° C., and crystalline monohydrate 8-((2-fluoro-4-(methylthio)phenyl)amino)-2-(2-hydroxyethoxy)-7-methyl-3,4-dihydro-2,7-naphthyridine-1,6(2H,7H)-dione, Form 3 is stable above 30% RH at 25° C.

relative humidity at which the solid form is stable | relative humidity at which anhydrous Form 2 rehydrates to monohydrate Form 3 (confirmed by PXRD) [% RH] | relative humidity at which monohydrate Form 3 dehydrates to anhydrous Form 2 (confirmed by PXRD) [% RH] | SMILES
below 10 % RH | 25 |  | CSc1ccc(Nc2c3c(cc(=O)n2C)CCN(OCCO)C3=O)c(F)c1 [Form 2, 8-((2-fluoro-4-(methylthio)phenyl)amino)-2-(2-hydroxyethoxy)-7-methyl-3,4-dihydro-2,7-naphthyridine-1,6(2H,7H)-dione]
above 30 % RH |  | 15 | CSc1ccc(Nc2c3c(cc(=O)n2C)CCN(OCCO)C3=O)c(F)c1 [Form 3, 8-((2-fluoro-4-(methylthio)phenyl)amino)-2-(2-hydroxyethoxy)-7-methyl-3,4-dihydro-2,7-naphthyridine-1,6(2H,7H)-dione]
